In brackets after ≈: the same amount, converted by molar mass.

Common to all, as to assay type: functional
Holding throughout (conditions): time 16-20 hrs

One test deals with Staphylococcus aureus. Nature of the test: Antibacterial activity against Staphylococcus aureus ATCC 25923 incubated for 16 to 20 hrs by broth microdilution method. In general terms: Broth dilution looks for growth in wells or tubes with falling amounts of substance.
Another test deals with Escherichia coli. Put plainly: Antibacterial activity against Escherichia coli ATCC 25922 incubated for 16 to 20 hrs by broth microdilution method.
In a further test the test system is Cronobacter sakazakii. Nature of the test: Antibacterial activity against Cronobacter sakazakii ATCC 29544 incubated for 16 to 20 hrs by broth microdilution method.
The next test concerns Klebsiella pneumoniae. Put plainly: Antibacterial activity against Klebsiella pneumoniae ATCC 13883 incubated for 16 to 20 hrs by broth microdilution method.

Broadly, the MIC is the lowest concentration found to suppress growth. Low values mean a more susceptible organism, high ones a less susceptible organism. In the case of `CC[C@H]1OC(=O)C[C@@H](O)[C@H](C)[C@@H](O[C@@H]2O[C@H](C)[C@@H](O)[C@H](N(C)C)[C@H]2O)[C@@H](CCN(Cc2ccccc2)Cc2cn(-c3cnc4ccccc4c3)nn2)C[C@@H](C)C(=O)/C=C/C(C)=C/[C@@H]1CN1CCC(O)CC1`, the MIC came out at 2 µg/mL (≈ 2.04 µM) in the test with Staphylococcus aureus, 16 µg/mL (≈ 16.3 µM) in the test with Escherichia coli, 16 µg/mL (≈ 16.3 µM) against Cronobacter sakazakii and 16 µg/mL (≈ 16.3 µM) in the test on Klebsiella pneumoniae.

On to `CC[C@H]1OC(=O)C[C@@H](O)[C@H](C)[C@@H](O[C@@H]2O[C@H](C)[C@@H](O)[C@H](N(C)C)[C@H]2O)[C@@H](CCN(Cc2ccccc2)Cc2cn(-c3cnc4ccccc4c3)nn2)C[C@@H](C)C(=O)/C=C/C(C)=C/[C@@H]1CI`, for which the MIC against Staphylococcus aureus stood at 2 µg/mL (≈ 1.99 µM); in the test with Escherichia coli it was 32 µg/mL (≈ 31.8 µM); against Cronobacter sakazakii it was 32 µg/mL (≈ 31.8 µM); against Klebsiella pneumoniae, 32 µg/mL (≈ 31.8 µM).

Regarding `CC[C@H]1OC(=O)C[C@@H](O)[C@H](C)[C@@H](O[C@@H]2O[C@H](C)[C@@H](O)[C@H](N(C)C)[C@H]2O)[C@@H](CCN(Cc2ccc(N(C)C)cc2)Cc2cn(-c3cnc4ccccc4c3)nn2)C[C@@H](C)C(=O)/C=C/C(C)=C/[C@@H]1CN1CC(C)CC(C)C1` (stereo partly specified), the MIC came to 2 µg/mL (≈ 1.93 µM) in the test with Staphylococcus aureus, 8 µg/mL (≈ 7.73 µM) in the test on Escherichia coli, 32 µg/mL (≈ 30.9 µM) against Cronobacter sakazakii and 32 µg/mL (≈ 30.9 µM) with Klebsiella pneumoniae.

On to `CC[C@H]1OC(=O)C[C@@H](O)[C@H](C)[C@@H](O[C@@H]2O[C@H](C)[C@@H](O)[C@H](N(C)C)[C@H]2O)[C@@H](CCN(Cc2ccc(OC)cc2)Cc2cn(-c3cnc4ccccc4c3)nn2)C[C@@H](C)C(=O)/C=C/C(C)=C/[C@@H]1CO`, for which the MIC against Staphylococcus aureus is 0.25 µg/mL (≈ 0.27 µM); in the test with Escherichia coli, 8 µg/mL (≈ 8.63 µM); with Cronobacter sakazakii it was 32 µg/mL (≈ 34.5 µM); against Klebsiella pneumoniae, 16 µg/mL (≈ 17.3 µM).

`CC[C@H]1OC(=O)C[C@@H](O)[C@H](C)[C@@H](O[C@@H]2O[C@H](C)[C@@H](O)[C@H](N(C)C)[C@H]2O)[C@@H](CCN(Cc2ccc(C(F)(F)F)cc2)Cc2cn(-c3cnc4ccccc4c3)nn2)C[C@@H](C)C(=O)/C=C/C(C)=C/[C@@H]1CI`: the minimal inhibitory concentration (MIC) came to 4 µg/mL (≈ 3.72 µM) with Staphylococcus aureus, 32 µg/mL (≈ 29.8 µM) against Escherichia coli, 32 µg/mL (≈ 29.8 µM) in the test on Cronobacter sakazakii and 32 µg/mL (≈ 29.8 µM) in the test with Klebsiella pneumoniae.

Take `CC[C@H]1OC(=O)C[C@@H](O)[C@H](C)[C@@H](O[C@@H]2O[C@H](C)[C@@H](O)[C@H](N(C)C)[C@H]2O)[C@@H](CCN(Cc2ccc(OC)cc2)Cc2cn(-c3cnc4ccccc4c3)nn2)C[C@@H](C)C(=O)/C=C/C(C)=C/[C@@H]1CN(C)C`: the MIC in the test on Staphylococcus aureus came out at 1 µg/mL (≈ 1.05 µM); against Escherichia coli, 8 µg/mL (≈ 8.38 µM); against Cronobacter sakazakii, 32 µg/mL (≈ 33.5 µM); against Klebsiella pneumoniae it was 8 µg/mL (≈ 8.38 µM).

With `CC[C@H]1OC(=O)C[C@@H](O)[C@H](C)[C@@H](O[C@@H]2O[C@H](C)[C@@H](O)[C@H](N(C)C)[C@H]2O)[C@@H](CCN(Cc2cn(-c3cnc4ccccc4c3)nn2)Cc2ccco2)C[C@@H](C)C(=O)/C=C/C(C)=C/[C@@H]1CN1CCCCCCC1`, the MIC in the test on Staphylococcus aureus came out at 1 µg/mL (≈ 1.02 µM); in the test on Escherichia coli it was 4 µg/mL (≈ 4.07 µM); in the test on Cronobacter sakazakii it was 32 µg/mL (≈ 32.6 µM); against Klebsiella pneumoniae, 8 µg/mL (≈ 8.14 µM).

In the case of `CC[C@H]1OC(=O)C[C@@H](O)[C@H](C)[C@@H](O[C@@H]2O[C@H](C)[C@@H](O)[C@H](N(C)C)[C@H]2O)[C@@H](CCN(Cc2cn(-c3cnc4ccccc4c3)nn2)Cc2c(OC)cc(OC)cc2OC)C[C@@H](C)C(=O)/C=C/C(C)=C/[C@@H]1CO`, the minimum inhibitory concentration (MIC) with Staphylococcus aureus was found to be 0.5 µg/mL (≈ 0.506 µM); with Escherichia coli it was 16 µg/mL (≈ 16.2 µM); with Cronobacter sakazakii, 32 µg/mL (≈ 32.4 µM); in the test on Klebsiella pneumoniae it was 32 µg/mL (≈ 32.4 µM).

Consider `CC[C@H]1OC(=O)C[C@@H](O)[C@H](C)[C@@H](O[C@@H]2O[C@H](C)[C@@H](O)[C@H](N(C)C)[C@H]2O)[C@@H](CCN(Cc2ccc(N(C)C)cc2)Cc2cn(-c3cnc4ccccc4c3)nn2)C[C@@H](C)C(=O)/C=C/C(C)=C/[C@@H]1CI`, for which the MIC amounted to 4 µg/mL (≈ 3.81 µM) with Staphylococcus aureus, 32 µg/mL (≈ 30.5 µM) against Escherichia coli, 32 µg/mL (≈ 30.5 µM) with Cronobacter sakazakii and 16 µg/mL (≈ 15.2 µM) against Klebsiella pneumoniae.

Values taken from ChEMBL document CHEMBL5126592, “Design, synthesis and activity against drug-resistant bacteria evaluation of C-20, C-23 modified 5-O-mycaminosyltylonolide derivatives” (Eur J Med Chem, 2022).
